Measurements from patent publication US7452977B2, “Antibody to a kinase capable of site-specific phosphorylation of IκBα” (Millennium Pharmaceuticals, Inc., priority 1996, dated 2008).
One block for each molecule: values may come before it.

Experiments:
NF-κB = test: Activation of NF-κB in vivo by agonists; assay type: cell-based; settings: agonists including PMA and ionomycin, TNF-α, and LPS
IκBα kinase [1] = target: T1, IκBα kinase (Homo sapiens, UniProt O14920+O15111); test: ELISA-based IκBα kinase assay (ELISA scheme 1), MEKK1-activated partially purified kinase; assay type: biochemical; settings: 10 μM inhibitor added to activated kinase before the biotinylated peptide substrate
T1 construct: IC50 against IκBα kinase activity; FI; Km of IκBα kinase for ATP
T1 sequence (O14920 whole entry): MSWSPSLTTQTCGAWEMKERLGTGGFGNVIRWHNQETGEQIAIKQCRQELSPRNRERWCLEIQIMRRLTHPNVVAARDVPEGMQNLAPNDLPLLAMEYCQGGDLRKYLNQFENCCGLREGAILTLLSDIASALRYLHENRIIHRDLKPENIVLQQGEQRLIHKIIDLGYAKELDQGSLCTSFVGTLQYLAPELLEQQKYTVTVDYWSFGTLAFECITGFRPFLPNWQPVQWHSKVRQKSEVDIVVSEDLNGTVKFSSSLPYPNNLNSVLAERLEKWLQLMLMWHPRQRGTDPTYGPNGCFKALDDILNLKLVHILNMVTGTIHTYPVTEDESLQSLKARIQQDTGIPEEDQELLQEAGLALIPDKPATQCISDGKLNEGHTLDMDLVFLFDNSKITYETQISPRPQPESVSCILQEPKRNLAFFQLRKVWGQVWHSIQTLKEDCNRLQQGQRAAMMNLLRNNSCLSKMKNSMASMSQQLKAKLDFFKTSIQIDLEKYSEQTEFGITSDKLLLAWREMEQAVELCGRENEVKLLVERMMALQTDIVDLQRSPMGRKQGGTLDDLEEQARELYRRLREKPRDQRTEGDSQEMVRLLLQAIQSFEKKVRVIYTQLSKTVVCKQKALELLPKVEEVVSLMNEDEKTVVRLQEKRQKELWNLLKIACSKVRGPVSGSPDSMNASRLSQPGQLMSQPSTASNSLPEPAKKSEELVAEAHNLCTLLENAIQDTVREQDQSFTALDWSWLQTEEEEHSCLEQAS
T1 sequence (O15111 whole entry): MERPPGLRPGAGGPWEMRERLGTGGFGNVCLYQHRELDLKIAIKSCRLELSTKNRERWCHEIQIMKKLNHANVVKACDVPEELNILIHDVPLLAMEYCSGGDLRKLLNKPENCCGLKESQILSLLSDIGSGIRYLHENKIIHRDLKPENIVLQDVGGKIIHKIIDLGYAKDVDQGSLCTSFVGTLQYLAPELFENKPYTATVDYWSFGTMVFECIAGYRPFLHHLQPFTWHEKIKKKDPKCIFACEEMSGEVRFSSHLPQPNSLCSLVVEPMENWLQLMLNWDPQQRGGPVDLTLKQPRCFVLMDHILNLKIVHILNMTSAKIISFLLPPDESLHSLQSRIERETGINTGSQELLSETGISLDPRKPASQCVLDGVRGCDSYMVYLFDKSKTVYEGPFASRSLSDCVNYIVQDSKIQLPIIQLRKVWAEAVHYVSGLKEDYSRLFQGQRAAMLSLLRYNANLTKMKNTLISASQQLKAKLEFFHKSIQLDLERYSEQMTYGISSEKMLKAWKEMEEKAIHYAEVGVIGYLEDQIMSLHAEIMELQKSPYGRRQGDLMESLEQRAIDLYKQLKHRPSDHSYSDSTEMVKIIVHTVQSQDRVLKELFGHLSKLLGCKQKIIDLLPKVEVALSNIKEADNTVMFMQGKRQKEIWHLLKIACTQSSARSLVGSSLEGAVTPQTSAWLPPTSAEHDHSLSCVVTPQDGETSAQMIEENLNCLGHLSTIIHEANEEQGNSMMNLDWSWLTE
T1 sequence (Q9Y6K9 whole entry partner): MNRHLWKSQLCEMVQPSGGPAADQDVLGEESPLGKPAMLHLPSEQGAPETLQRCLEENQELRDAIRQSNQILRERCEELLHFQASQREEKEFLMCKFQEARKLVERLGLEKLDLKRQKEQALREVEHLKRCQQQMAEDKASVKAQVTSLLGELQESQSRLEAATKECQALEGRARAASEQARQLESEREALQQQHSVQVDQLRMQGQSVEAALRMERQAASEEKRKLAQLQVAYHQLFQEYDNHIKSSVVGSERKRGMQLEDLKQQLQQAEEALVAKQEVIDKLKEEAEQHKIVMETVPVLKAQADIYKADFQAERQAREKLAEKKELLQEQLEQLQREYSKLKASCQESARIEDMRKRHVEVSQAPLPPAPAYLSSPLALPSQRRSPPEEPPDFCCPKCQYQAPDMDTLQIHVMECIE
Experimental: IκBα kinase was prepared by first diluting S-100 HeLa cell extracts [1:10] with 50 mM HEPES pH 7.6 and 40% ammonium sulfate was added for 30 minutes on ice. Collected pellet was redissolved to a minimum volume, centrifuged, and filtered through a 0.22 μm filter. Sample was loaded onto a Superose-6 FPLC column equilibrated with 50 mM HEPES pH 7.6. 25 mM NaCl, 1 mM DTT, operated at 4° C. at 1 mL/min flow rate. Fractions were assayed for activity by the gel-shift assay. Active fractions peaked at ˜700 kD were collected, pooled, and protein concentration was determined.
ELISA scheme 1—Biotinylated peptide substrate at 500 μM was incubated with partially purified kinase alone, with 30 nM MEKK1Δ alone, or in combination for 2 hrs at 37° C. with 2.5 mM ATP, 10 mM DTT, 5 μM okadaic acid in the presence or absence of inhibitor. Kinase reactions were quenched by diluting [1:50] with PBS-BTE (PBS, 0.1% BSA, 0.05% Tween-20, 20 mM EDTA). […] Color development was performed with o-phenylenediamine dihydrochloride (Sigma FAST o-PD) and signals were recorded at 450 nm. Alternatively, peroxidase reaction was quenched with 3 N HCl and signals were read at 492 nm.
When control primary antibody which recognizes all IκBα species was used, all samples containing biotinylated peptide substrate produced peroxidase activity as detected by the o-PD conversion. […]

IκBα [2] = test: Phosphorylation and ubiquitination of 35S-labeled IκBα in HeLa cell cytoplasmic extracts with okadaic acid; assay type: biochemical, human; settings: 10 μM; in the presence of okadaic acid; FIG. 9
Text: ^35S-labeled IκBα was synthesized by in vitro translation, and used as a substrate for phosphorylation (bottom panel, short exposure) and ubiquitination (top panel, long exposure) assays in HeLa cell cytoplasmic extracts in the presence of okadaic acid (Chen et al., Genes and Dev. 9:1586-1597 (1995)). Various agents were included in the reaction to test their ability to inhibit the phosphorylation and ubiquitination of IκBα.

IκBα kinase [3] = test: Phosphorylation of IκBα by partially purified IκBα kinase (gel-based); assay type: biochemical, human
Experimental: Unless otherwise indicated, phosphorylation of IκBα was usually carried out at 37° C. for 1 hour in a reaction volume of 10 μl containing: an ATP regenerating system (50 mM Tris-HCl, pH 7.6, 5 mM MgCl2, 2 mM ATP, 10 mM creatine phosphate, 3.5 units/ml creatine kinase, 0.6 units/ml inorganic pyrophosphatase), 0.5 μl of in vitro translated ^35S-labeled IκBα, 2 μg/ml of recombinant RelA homodimer (to form complex with IκBα), 3 μM okadaic acid, 60 μM ubiquitin, 50 nM E1 (rabbit), 1 μM UBC4 (yeast) or GST-UBCh5 (human), and 0.5-3 μl of IκBα kinase containing fractions. In some experiments, HeLa fraction I (1 mg/ml) was used as a source of E2s. At the end of each reaction, SDS sample buffer was added to quench the reaction, and the samples were analyzed by SDS-PAGE (9%) followed by flourography. Phosphorylation of IκBα was quantitated by PhosphorImager analysis. Ubiquitination of IκBα has been described previously (Chen, Z. J. et al., Genes & Dev. 9:1586-1597 (1995)).

IκBα [4] = settings: previously shown (Beg 1993; Henkel 1993; Sun 1993); cited from earlier work
IκBα kinase [5] = target: T1, IκBα kinase; test: Polypeptide inhibition of 35S-IκBα phosphorylation by IκBα kinase (gel-based); assay type: biochemical; settings: ubiquitination-activated kinase, 37° C., 40 min, FIG. 20
Experimental: An N-terminal fragment (residues 5-72) of IκBα was expressed in E. coli as a recombinant protein containing a poly-histidine (His6) tag at the N-terminus.Protein purification was accomplished by nickel affinity chromatography. As a control, the full-length IκBα (SEQ ID NO:9; Haskill (1991) Cell 65:1281) was also expressed and purified in a similar fashion.
Recombinant full-length IκBα or IκBα (5-72) was added at indicated concentration to 10 μl of reaction mixture containing an ATP regenerating system (50 mM Tris at pH 7.6, 5 mM MgCl2, 2 mM ATP, 10 mM phosphocreatine, 3.5 U/ml creatine phosphokinase, 0.6 U/ml inorganic pyrophosphatase), 60 μM Ubiquitin, 50 nM E1, 1 μM UBC4, 0.5 μl of in vitro translated ^35S-IκBα, 0.5 μl of IκBα kinase (fraction 19 from Superdex 200 column), and 3 μM okadaic acid. After incubation at 37° C. for 40 min., the reaction was quenched by the addition of SDS sample buffer, separated by electrophoresis on 9% SDS-polyacrylamide gel, and then analyzed by fluorography.

Molecule: COC(=O)[C@@]1(O)C[C@H]2O[C@]1(C)n1c3ccccc3c3c4c(c5c6ccccc6n2c5c31)C(=O)NC4 [K252a]
inhibition of the activation of NF-κB in vivo (NF-κB): inhibit the activation of NF-κB in vivo
inhibition of MEKK1 dependent kinase activity (IκBα kinase [1]): fully inhibited
inhibition of phosphorylation and ubiquitination of IκBα in HeLa cell extracts (IκBα [2]): Inhibit
inhibition of phosphorylation of IκBα by partially purified IκBα kinase (IκBα kinase [3]): inhibits

Molecule: Cc1ccc(S(=O)(=O)N[C@@H](CCCCN)C(=O)CCl)cc1 [TLCK, Nα-p-tosyl-L-lysine chloromethyl ketone]
inhibition of phosphorylation and degradation of IκBα in vivo (IκBα [4]): inhibit

Molecule: N-tosyl-L-phenylalanine chloromethyl ketone [TPCK]
inhibition of phosphorylation and degradation of IκBα in vivo (IκBα [4]): inhibit

inhibition of phosphorylation of 35S-IκBα by purified IκBα kinase (IκBα kinase [5]): inhibition
inhibition of phosphorylation of 35S-IκBα by purified IκBα kinase (IκBα kinase [5]; listed as amino acid residues 5-72 of IκBα): selectively inhibits
B1: IκBα (5-72): N-terminal fragment (residues 5-72) of IκBα, recombinant from E. coli with N-terminal His6 tag (protein)
chain: HHHHHHAERPQEWAMEGPRDGLKKERLLDDRHDSGLDSMKDEEYEQMVKELQEIRLEPQEVPRGSEPWKQQLTE

inhibition of phosphorylation of 35S-IκBα by purified IκBα kinase (IκBα kinase [5]): inhibition
B2: full-length IκBα: recombinant full-length IκBα (SEQ ID NO:9), expressed and purified as control (protein, listed as Homo sapiens)
chain: MFQAAERPQEWAMEGPRDGLKKERLLDDRHDSGLDSMKDEEYEQMVKELQEIRLEPQEVPRGSEPWKQQLTEDGDSFLHLAIIHEEKALTMEVIRQVKGDLAFLNFQNNLQQTPLHLAVITNQPEIAEALLGAGCDPELRDFRGNTPLHLACEQGCLASVGVLTQSCTTPHLHSILKATNYNGHTCLHLASIHGYLGIVELLVSLGADVNAQEPCNGRTALHLAVDLQNPDLVSLLLKCGADVNRVTYQGYSPYQLTWGRPSTRIQQQLGQLTLENLQMLPESEDEESYDTESEFTEFTEDELPYDDCVFGGQRLTL
